Experimental data from BindingDB's records for doi:10.1016/s0960-894x(00)00485-6 (Axys Pharmaceuticals, 2001).

Assay: Dissociation constant of compound was evaluated from its IC50 against tryptase at different concentrations

NC(N)=Nc1ccc(CNC(=O)N2CCN(C(=O)O[C@@H]3CO[C@H]4[C@@H]3OC[C@H]4OC(=O)N3CCN(C(=O)NCc4ccc(N=C(N)N)cc4)CC3)CC2)cc1 [Derivative of APC-2059]
Kd: 0.1 nM
